# Experimental data taken from patent US20070224657A1, “Distribution of PON1 as a marker of lipid related disorders” (priority 2006, published 2007).
# Like-named read-outs stand apart in the source and are kept apart here.
# Tests used:
# PON1 [1] = target: T1, PON1 (Homo sapiens, UniProt P27169); conditions: inhibitor or antibody (diluted 1:10, v:v) added to the fractions; data not shown
# PON1 [2] = target: T1, PON1; conditions: inhibitor 200 μM
# Method: Arylesterase activity: Arylesterase activity was determined using 5 μl serum or 10 μl of the HDL or LPDS fraction in a total volume of 1 ml of 50 mM Tris-HCL, pH 8.0 containing 1 mM CaCl2 and 1 mM phenyl acetate. The increase in OD at 270 nm was monitored for 1 minute. One unit is defined as 1 μmol of phenyl actetate hydrolyzed per ml per minute (26).
# J774 A.1 macrophages = experiment: Macrophage cholesterol efflux mediated by HDL or LPDS; type: cell-based, murine; conditions: Mus musculus
# Method: HDL and LPDS were isolated from 3 healthy subjects by ultracentrifugation. […] The cells were also incubated with HDL or LPDS fractions that were preincubated for 1 hour at 37° C. with the PON1 inhibitor 2-hydroxyquinoline (200 μM), or with HDL and LPDS that were enriched with evolved PON1 (50 paraoxonase U/ml). HDL or LPDS-mediated cholesterol efflux was then determined. Results are given as mean±S.D of three different experiments *p<0.01 vs. HDL, #p<0.01 vs. LPDS.
# Cells: J774 A.1 murine macrophage cells were purchased from the American Tissue Culture Collection (ATCC, Rockville, Md.). The cells were grown in Dulbecco's modified Eagle's medium (DMEM) containing 5% FCS and 100 U penicillin/ml, 100 μg streptomycin/ml, and 2 mM glutamine.
# Macrophage Cholesterol efflux determination: J774 A.1 macrophages were incubated with [^3H]-labeled cholesterol (2 μCi/ml) for 1 hour at 37° C., followed by cell wash in ice-cold PBS (×3) and a further incubation in the absence or presence of HDL or LPDS (5 paraoxonase units/ml)) for 3 hours at 37° C. […] Cellular and medium [^3H]-labeled cholesterol was quantitated and the percentage of cholesterol efflux was calculated [the ratio of [^3H]-label in the medium*100/([^3H]-label in the medium+[^3H]-label in the cells), 18]. […]
# T1 sequence (P27169 whole entry): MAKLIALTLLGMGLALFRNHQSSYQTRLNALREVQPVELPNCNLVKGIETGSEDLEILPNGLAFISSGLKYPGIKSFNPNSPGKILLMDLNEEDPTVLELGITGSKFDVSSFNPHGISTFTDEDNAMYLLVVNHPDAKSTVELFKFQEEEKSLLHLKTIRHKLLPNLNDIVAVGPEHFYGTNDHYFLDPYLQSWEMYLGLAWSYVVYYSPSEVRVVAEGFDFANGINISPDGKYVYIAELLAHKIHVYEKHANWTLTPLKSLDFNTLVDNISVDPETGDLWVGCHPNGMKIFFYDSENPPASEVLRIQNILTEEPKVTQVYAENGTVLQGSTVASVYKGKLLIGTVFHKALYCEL
structure (smiles),measurement,setting,value
Oc1ccc2ccccc2n1 [2-hydroxyquinoline],paraoxonase activities in HDL and LPDS,PON1 [1],significantly reduced
same,reduction in HDL arylesterase activity,PON1 [2]; HDL fraction,60%
same,HDL arylesterase activity with inhibitor,"PON1 [2]; HDL fraction, without inhibitor 22.4±1.5",9.0±1.0 units/ml
same,reduction in LPDS arylesterase activity,PON1 [2]; LPDS fraction,76%
same,LPDS arylesterase activity with inhibitor,"PON1 [2]; LPDS fraction, without inhibitor 2.9±0.5",0.7±0.7 units/ml
same,inhibition at 200 µM,"J774 A.1 macrophages; J774.A1, read-out: reduction of cholesterol efflux by HDL preincubated with the inhibitor",25%
same,inhibition at 200 µM,"J774 A.1 macrophages; J774.A1, inhibitor 200 μM, vs non-treated LPDS, read-out: reduction of cholesterol efflux by LPDS preincubated with the inhibitor",10%
